According to article PMC5333456, “Characterization of HSP90 isoforms in transformed bovine leukocytes infected with Theileria annulata” (Cellular Microbiology, 2016):

Tests used:
[1] = target: T1, TA12105 (T. annulata cytoplasmic HSP90) (Theileria annulata, UniProt Q4UDU8); assay: biochemical
[2] = target: T1, TA12105 (T. annulata cytoplasmic HSP90); assay: intrinsic tryptophan fluorescence quenching (ATPase Km […]); format: binding

T1 sequence (Q4UDU8 whole entry): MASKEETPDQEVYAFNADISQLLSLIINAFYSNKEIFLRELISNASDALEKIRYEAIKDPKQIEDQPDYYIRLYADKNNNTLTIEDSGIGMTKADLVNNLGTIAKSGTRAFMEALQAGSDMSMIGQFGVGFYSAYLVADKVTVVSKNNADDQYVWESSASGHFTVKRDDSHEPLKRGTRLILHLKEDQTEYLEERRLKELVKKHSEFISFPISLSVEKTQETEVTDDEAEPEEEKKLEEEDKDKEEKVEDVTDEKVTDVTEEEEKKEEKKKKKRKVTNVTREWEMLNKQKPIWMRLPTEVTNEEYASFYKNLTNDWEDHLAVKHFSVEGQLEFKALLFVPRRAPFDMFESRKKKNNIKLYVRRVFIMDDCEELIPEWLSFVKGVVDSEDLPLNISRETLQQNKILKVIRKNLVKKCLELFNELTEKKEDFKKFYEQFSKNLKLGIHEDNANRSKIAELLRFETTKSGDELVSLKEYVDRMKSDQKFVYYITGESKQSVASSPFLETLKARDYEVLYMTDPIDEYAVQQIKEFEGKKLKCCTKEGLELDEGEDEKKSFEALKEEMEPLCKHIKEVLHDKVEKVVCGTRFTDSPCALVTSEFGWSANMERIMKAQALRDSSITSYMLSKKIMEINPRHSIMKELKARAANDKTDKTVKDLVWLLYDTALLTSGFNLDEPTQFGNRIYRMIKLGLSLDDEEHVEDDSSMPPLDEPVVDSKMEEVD

C=CCNC1=C2C[C@@H](C)C[C@H](OC)[C@H](O)[C@@H](C)/C=C(\C)[C@H](OC(N)=O)[C@@H](OC)/C=C\C=C(/C)C(=O)NC(=CC1=O)C2=O [17-AAG]
Kd [1]: 7.67 µM

Nc1ncnc2c1ncn2[C@@H]1O[C@H](COP(=O)(O)OP(=O)(O)OP(=O)(O)O)[C@@H](O)[C@H]1O [ATP]
Kd [2]: 179 µM
